Assays:
CDO-Np (CDO-NpA/CDO-NpB) = molecular target: T1, CDO-Np (CDO-NpA/CDO-NpB) (Nocardiopsis sp. L17-MgMaSL7, UniProt A0A317LX08+A0A317LXS7); assay: LC-MS/HPLC product formation with E. coli crude extract; format: biochemical; conditions: 1 mM substrate, 1 mM phenazine methosulfate, pH 7.5, 40 °C; dehydrogenation
T1 construct: gene BDW27_11054; desalted crude extract
T1 sequence (A0A317LXS7 1-185): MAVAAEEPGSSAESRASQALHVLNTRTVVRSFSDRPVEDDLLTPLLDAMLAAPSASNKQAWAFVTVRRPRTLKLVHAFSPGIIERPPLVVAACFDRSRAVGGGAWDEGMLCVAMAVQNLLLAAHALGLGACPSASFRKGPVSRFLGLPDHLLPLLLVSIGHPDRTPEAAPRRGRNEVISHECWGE
T1 sequence (A0A317LX08 1-105): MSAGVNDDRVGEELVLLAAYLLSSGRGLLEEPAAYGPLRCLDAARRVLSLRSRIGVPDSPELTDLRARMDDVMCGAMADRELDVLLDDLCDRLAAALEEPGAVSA

AlbA/B = molecular target: T2, AlbA/B (Streptomyces noursei, UniProt Q8GED8+Q8GED9); assay: as above; format: biochemical; conditions: 1 mM substrate, 1 mM phenazine methosulfate, pH 7.5, 40 °C; dehydrogenation
T2 construct: both subunits co-expressed from overlapping genes in pQE-60 (pKB90) in E. coli SG 13009; desalted crude extract; CDOs described as multimers above 2000 kDa, estimated B to A ratio 1:10
T2 sequence (Q8GED9 whole entry): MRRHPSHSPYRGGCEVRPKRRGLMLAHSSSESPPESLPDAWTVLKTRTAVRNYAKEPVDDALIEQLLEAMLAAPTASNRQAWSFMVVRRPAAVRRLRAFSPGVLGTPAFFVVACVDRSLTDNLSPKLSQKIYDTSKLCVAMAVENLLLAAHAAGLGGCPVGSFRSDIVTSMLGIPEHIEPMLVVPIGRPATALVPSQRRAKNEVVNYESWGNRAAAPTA
T2 sequence (Q8GED8 whole entry): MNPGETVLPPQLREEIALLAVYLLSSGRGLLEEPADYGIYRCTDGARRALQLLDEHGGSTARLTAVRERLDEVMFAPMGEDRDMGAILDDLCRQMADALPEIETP

Compound: CC(C)C[C@@H]1NC(=O)[C@H](Cc2ccccc2)NC1=O [1a, cyclo-L-Phe-L-Leu]
- LC-MS/HPLC product formation with E. coli crude extract (CDO-Np (CDO-NpA/CDO-NpB)): CDO-Np showed very high activity toward 1a and 2a

Compound: O=C1N[C@@H](Cc2ccc(O)cc2)C(=O)N[C@H]1Cc1ccccc1 [2a, cyclo-L-Phe-L-Tyr]
- LC-MS/HPLC product formation with E. coli crude extract (AlbA/B): The behavior of AlbA/B with 2a was similar to CDO-Np with 3a and 5a
- LC-MS/HPLC product formation with E. coli crude extract (CDO-Np (CDO-NpA/CDO-NpB)): In vitro incubation of 2a with CDO-Np led to an almost complete conversion to 2d

Compound: O=C1N[C@@H](Cc2c[nH]c3ccccc23)C(=O)N[C@H]1Cc1ccc(O)cc1 [3a, cyclo-L-Trp-L-Tyr]
- LC-MS/HPLC product formation with E. coli crude extract (AlbA/B): Only one didehydrogenated product 3b or 5b was detected in the reaction mixtures of AlbA/B

Source: publication PMC7044140, “Comparative studies on similarities and differences of cyclodipeptide oxidases for installation of C–C double bonds at the diketopiperazine ring” (Applied Microbiology and Biotechnology, 2020)
